Patent US5298521A, “1,5-diphenyl-3-pyrazolylalkyl-N-hydroxydithiocaramates, compositions and use” (Ortho Pharmaceutical Corporation, priority 1993, dated 1994)
Like-named read-outs stand apart in the source and are kept apart here.

Columns and labels:
[1] = biological target: T1, RBL-1 cell 5-lipoxygenase (Rattus norvegicus, UniProt P12527); assay: RBL-1 cell 5-lipoxygenase, cell homogenate supernatant (Procedure II); format: biochemical; settings: RBL-1 homogenate; for inhibition at 3 µM: read-out: PROC. II % INHIBITION 5-LO; for IC50: read-out: PROC. II IC50 5-LO
T1 construct: the supernatant was saved as the source of enzymes; endogenous in cells; host or cells: RBL-1 rat basophilic leukemia cells, homogenate supernatant
T1 sequence (P12527 1-673): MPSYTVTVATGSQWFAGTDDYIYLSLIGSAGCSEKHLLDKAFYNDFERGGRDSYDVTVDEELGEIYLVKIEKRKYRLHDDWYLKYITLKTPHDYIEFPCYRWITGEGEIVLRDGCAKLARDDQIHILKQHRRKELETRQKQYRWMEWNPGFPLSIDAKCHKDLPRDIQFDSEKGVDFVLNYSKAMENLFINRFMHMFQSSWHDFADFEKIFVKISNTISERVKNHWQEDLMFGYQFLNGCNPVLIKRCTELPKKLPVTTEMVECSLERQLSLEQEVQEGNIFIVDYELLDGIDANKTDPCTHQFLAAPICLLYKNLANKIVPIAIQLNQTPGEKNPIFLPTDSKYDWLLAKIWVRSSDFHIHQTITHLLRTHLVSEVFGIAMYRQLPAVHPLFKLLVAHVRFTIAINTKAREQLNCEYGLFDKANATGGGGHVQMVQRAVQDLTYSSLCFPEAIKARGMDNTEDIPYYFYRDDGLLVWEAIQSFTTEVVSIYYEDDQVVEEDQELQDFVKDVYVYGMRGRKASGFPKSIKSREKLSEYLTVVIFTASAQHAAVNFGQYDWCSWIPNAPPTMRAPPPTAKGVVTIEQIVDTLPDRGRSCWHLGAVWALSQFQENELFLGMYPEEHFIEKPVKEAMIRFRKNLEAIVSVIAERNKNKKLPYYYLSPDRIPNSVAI
Description: RBL-1 cell 5-lipoxygenase and cyclooxygenase
Rat basophilic leukemia cells (RBL-1; 5×10^7 viable cells/mL) were disrupted by homogenization on ice (four 20 sec bursts) with a Brinkman polytron. Complete cell breakage was verified microscopically. The homogenate was then centrifuged at 10,000×g for 48 minutes at 4° C. The pellet was discarded and the supernatant was saved as the source of enzymes. The supernatant was pre-incubated for five minutes at 37° C. in the presence of 2 mM of CaCl2 and compound or vehicle (1% DMSO). The conversion of AA into 5-LO products was initiated by adding 10 μL (50 μCi) of 1-^14 C-AA to each tube and incubated at 37° C. for 20 minutes. The reaction was stopped by adjusting the pH of each sample to 3 to 3.5 with 2M formic acid. Samples were extracted with three volumes of chloroform to isolate the products of 5-LO formed during the reaction. Fractions were dried under nitrogen, then resuspended in 40 μL of chloroform and spotted onto silica gel HL plates. The plates were developed in A-9 solvent. The dried plates were analyzed using a Bioscan Imaging TLC scanner to determine the percentage of radiolabelled AA converted to 5-HETE in each sample.

CO = assay: Ex vivo eicosanoid synthesis in dog whole blood, CO (prostaglandin F2α or TxB2) (Procedure IV); settings: Canis lupus familiaris, oral, read-out: PROC. IV % INHIB/HOURS CO; for inhibition at 5 mg/kg: 5 MPK
Description: (§1) Ex Vivo eicosanoid synthesis in dog whole blood. Adult beagle or mongrel dogs (10-15 kg) of either sex were fasted overnight prior to the initiation of each experiment. The forelimb was clipped and swabbed with an alcohol prep (70% isopropanol). Blood was drawn by venipuncture into syringes containing lithium heparin (Starstead, Newton NC) immediately prior to administration of compound or vehicle and then at various intervals following dosing. The test compound was administered orally as a suspension in 0.5% methocel. At various times after dosing, blood samples were drawn and placed on an electric rocker platform to assure complete and continuous mixing. White blood cell (wbc) counts were performed using a Sysmex hematology analyzer. This was done in an effort to normalize the number of leukocytes to be stimulated with calcium ionophore. A 1.0 mL aliquot of whole blood was challenged with 50 μL of a 2.6×10^-5 M solution of calcium ionophore A23187 (Calbiochem, La Jolla, CA) prepared in DMSO and diluted in HBSS. After a 15 minute incubation at 37° C., the reaction was stopped by placing the samples in an ice bath (4° C.) for 5 minutes and then centrifuged at 11,000×g for 5 minutes to separate the plasma fraction from blood cells. The plasma fraction was removed, diluted in an appropriate buffer, and analyzed for the presence of LTB4 and prostaglandin F2α or TxB2 by standard RIA techniques. […]

5-LO = assay: Ex vivo eicosanoid synthesis in dog whole blood, 5-LO (LTB4) (Procedure IV); settings: Canis lupus familiaris, oral, read-out: PROC. IV % INHIB/HOURS 5-LO; for inhibition at 5 mg/kg: 5 MPK, 6 hours
Description: as §1

[2] = biological target: T2, 5-LO in intact RBL-1 cells (Rattus norvegicus, UniProt P12527); assay: 5-LO inhibition in intact RBL-1 cells (Procedure III); format: cell-based; settings: read-out: PROC. III IC50 5-LO
T2 construct: endogenous in cells; host or cells: intact RBL-1 cells
T2 sequence (P12527 1-673): T1 sequence (P12527 1-673)
Description: (§2) The ability to inhibit 5-LO and CO in intact RBL-1 cells was also evaluated. RBL-1 cells were maintained in culture in minimal essential medium (Bio*Whittaker, Walkersville, MD), containing 12.5% fetal calf serum, 10 mg/mL streptomycin, 10 I.U./mL penicillin G, […] gentamycin and 2 mM L-glutamine (Bio*Whittaker, Walkersville, MD). Cells were collected by centrifugation, washed once in HBSS, and resuspended at a concentration of 1×10^5 cells/mL. Cells were incubated in the presence of vehicle or drug then centrifuged at 800×g for 10 minutes at 4° C. The supernatant was removed by aspiration and the cells were resuspended in 0.5 mL of HBSS. The reaction was started by the addition of 20 μg/mL of calcium ionophore A-23187 (mixed calcium and magnesium salts, Calbiochem, La Jolla CA) and allowed to proceed for 15 minutes, then stopped by plunging the tubes into a slush ice bath. The conversion of AA to 5-LO products was initiated by the addition of 10 μL (50 uCi) of 1-^14 C-AA. Products were isolated by acidification and extraction, followed by thin layer chromatography analysis as described above. Radioactive areas corresponding to authentic 5-LO and CO products were quantitated by the Bioscan 2000 Imaging System.

CO in intact RBL-1 cells = assay: CO inhibition in intact RBL-1 cells (Procedure III); format: cell-based, rat; settings: superscript = number of experiments, read-out: PROC. III IC50 CO
Description: as §2

Row | SMILES | inhibition at 3 µM [1] [%] | IC50 [1] [nM] | inhibition at 5 mg/kg (CO; 24 hours) [%] | inhibition at 5 mg/kg (5-LO) [%] | IC50 [2] [nM] | IC50 (CO in intact RBL-1 cells) [nM] | inhibition at 5 mg/kg (CO; 6 hours) [%] | inhibition at 1 mg/kg (CO; 1 MPK, 2 hours) [%] | inhibition at 1 mg/kg (5-LO; 1 MPK, 2 hours) [%]
1 | COc1ccc(-n2nc(CSC(=S)N(O)C(C)C)c(Cl)c2-c2ccc(Cl)cc2)cc1 [1-D] | 70 | 70 | 32 | 2 |  |  |  |  | 
2 | COc1ccc(-n2nc(CSC(=S)N(O)C(C)C)cc2-c2ccc(C)cc2)cc1 [1-G] | 79 | 20 |  |  | 5600 | 180 |  |  | 
3 | COc1ccc(-n2nc(CSC(=S)N(C)O)c(Cl)c2-c2ccc(C)cc2)cc1 [1-H] | 91 |  |  |  | 670 | 1600 |  |  | 
4 | COc1ccc(-n2nc(CSC(=S)N(O)C(C)C)c(Br)c2-c2ccc(Cl)cc2)cc1 [1-E] | 73 | 40 |  | 41 | 2800 | 6500 | 31 |  | 
5 | COc1ccc(-n2nc(CSC(=S)N(C)O)c(Cl)c2-c2ccc(Cl)cc2)cc1 [1-C] | 91 |  |  |  | 240 | 2400 |  |  | 
6 | COc1ccc(-n2nc(CSC(=S)N(O)C(C)C)cc2-c2ccc(Cl)cc2)cc1 [1-B] | 100 | 570 |  |  | 7000 | 1400 |  | 77 | 36
